# Assay results reported in paper PMC8741257, “Identification of novel non-toxic and anti-angiogenic α-fluorinated chalcones as potent colchicine binding site inhibitors” (Journal of Enzyme Inhibition and Medicinal Chemistry, 2022).
# What was measured:
# tubulin = test: Tubulin polymerisation assay in vitro; type: biochemical; details: 6 µM of 4c; colchicine 4 µM as positive control; fluorescence intensity
# Description: The microtubule kinetic experiments were performed with 4 µM of colchicine as a positive control and 6 µM of 4c as the experimental group according to the method originally described by J. M. Andreu et al. with some modifications. Purified and unpolymerised tubulin was incubated with the tested compounds and the increased tendency of fluorescence intensity shown in control samples was obviously slowed down.
# [1] = tested on: HUVECs (human umbilical vein endothelial cells); test: Wound healing migration assay; type: cell-based; details: 10 µM, 48 h, control 65%
# Description: HUVECs (human umbilical vein endothelial cells) grown on Matrigel were commonly used as a tube formation model for studying the physiological and pathological processes of the vascular system in vitro, and a widely studied human endothelial cell type in angiogenesis. The effect of 4c on endothelial cell migration was assessed by using HUVECs. Standardised wounds were made in confluent monolayers of HUVECs and then exposed to compound 4c at 2.5, 5 and 10 µM for 48 h. […] We further evaluated the capacity of 4 s on endothelial cell invasion using a Transwell assay.
# MGC-803 cells and HUVECs were seeded in 24-well plates and cultivated for 24 h at 37 °C. The cells were scribed vertically with a gun tip and washed with PBS to remove dead cells. The containing different concentrations of 4c were added to the scratched monolayers. The migrated cells were photographed under a light microscope at indicated time points from the scratch. Take a picture and use the image J software to calculate the area of the cell scratches.
# [2] = tested on: Caspase -3/-7/-9 and PARP in MGC-803 cells; test: Western blot of apoptosis-related proteins; type: cell-based, human; details: 18, 36 and 72 nM, 48 h
# Description: The Caspase family proteins are considered to be critical regulators of cell apoptosis, in which Caspase-3 is one of the most important "executioner" of apoptosis induction, capable of cleaving many important cellular matrices and represent the hallmark of apoptosis. To explore the apoptosis-associated protein alterations, the expression of Caspase -3/-7/-9 and PARP was analysed.
# (§1) The protein levels in MGC-803 cells were assessed via western blot analysis. Exponentially growing MGC-803 cells were seeded at a density of 6 × 10^5/dishes and incubated overnight. Then 18, 36, 72nΜ of 4c were added in triplicate for 48 h incubation. After the cells were washed with cold PBS, the supernatant was removed. The supernatant was collected by centrifuging at 12,000 g for 10 min at 4 °C. The protein concentration in the supernatant was determined by using a BSA protein assay kit. Samples were prepared in SDS-PAGE loading buffer after BSA analysis to quantify proteins, then boiled for 10 min at 100 °C. Western blot analyses were conducted after separation by SDS-PAGE electrophoresis and transfer to nitrocellulose filter (NC) membranes. Immunoblotting was performed according to the antibody manufacturers’ recommendations.
# HUVECs = test: Tube formation assay on Matrigel; type: cell-based, human; details: 2.5 µM
# Description: The formation of HUVEC tube represents the key steps in angiogenesis. Thus, we further tested the anti-vascular activity of 4c by performing a tube formation assay. As shown in Figure 10 HUVECs in the control group formed integrated tubules with multicentric junctions on the Matrigel matrix, while the tubes were fragmentary after exposure to 4c.
# The matrix gel was thawed overnight at 4 °C and then added to 96 well plates. After incubated at 37 °C for 45 min, the matrix gel was solidified. Different concentrations of 4c were added to each well at the density of HUVECs was 1 × 10^5/well. After incubated at 37 °C for 6–8 h, the formation of tubules was observed under microscope
# [3] = tested on: p-Cdc2, CyclinB1 and P21 in MGC-803 cells; test: Western blot of G2/M regulatory proteins; type: cell-based, human; details: 18, 36, 72 nM, 48 h
# From the text: Cdc2 kinase, a member of Ser/Thr protein family, is considered as a driving force of G2/M transition. Activation of Cdc2 catalysed the phosphorylation of a variety of substrate proteins, thus promoting cell transition from G2 phase to M phase. Cyclin B1 plays a vital role to control cell transition from G2 to M phase. P21 also effectively regulates cell cycle progress by increasing the intracellular G2/M phase ratio. Therefore, the expression of cell cycle checkpoint protein was investigated.
# as §1
# [4] = tested on: 293 T (human embryonic kidney cell); test: Growth inhibition of normal human cells; type: cell-based; details: HEK-293T, triplicate, mean ± SD
# Description: (§2) The effect of compound 4c on three types of normal human cell lines including LO2 (human hepatocyte cells), 293 T (human embryonic kidney cell) and THP-1-derived macrophages was then determined.
# [5] = tested on: THP-1-derived macrophages; test: Growth inhibition of normal human cells; type: cell-based; details: Macrophage, triplicate, mean ± SD
# Description: as §2
# [6] = tested on: LO2 (human hepatocyte cells); test: Growth inhibition of normal human cells; type: cell-based; details: triplicate, mean ± SD
# Description: as §2
# [7] = tested on: MCF-7 (human breast cancer cells); test: Antiproliferative activity (SRB assay); type: cell-based; details: MCF7, mean ± SD, three separated experiments, 72 h
# Description: (§3) MCF-7, MGC-803, Hela and HepG-2 cell lines were cultured in a base medium (90% DMEM and 10% FBS), A549 and U937 were cultured in a base medium (90% PRMI-1640 and 10% FBS) at 37 °C, 5% CO2 and a saturated humidity atmosphere. All the mediums were supplemented with 10% FBS and 1% […]/streptomycin (all cells were purchased from Shanghai Institutes for Biological Sciences, Chinese Academy of Sciences, Shanghai, China).
# (§4) A549, MGC-803, MCF-7, HepG2 and Hela cells were seeded at the appropriate cell line density (3 × 10^3 to 4 × 10^3 cells/well). The cells were then incubated at 37 °C for 24 h in a humidified 5%CO2 in 96-well plates prior to experiments. After a further 72 h of incubation, cell proliferation was quantified with SRB ([…]) to determine the number of surviving cells. The absorbance at 560 nm was measured by microplate. The experiment was repeated three times, and the data were listed in the form of mean and standard deviation.
# [8] = tested on: Hela (human cervical cancer cells); test: Antiproliferative activity (SRB assay); type: cell-based; details: mean ± SD, three separated experiments, 72 h
# Description: as §3, §4
# [9] = tested on: A549 (human non-small cell lung cancer); test: Antiproliferative activity (SRB assay); type: cell-based; details: mean ± SD, three separated experiments, 72 h
# Description: as §3, §4
# [10] = tested on: HepG2 (human liver cancer cells); test: Antiproliferative activity (SRB assay); type: cell-based; details: mean ± SD, three separated experiments, 72 h
# Description: as §3, §4
smiles,measurement,setting,value
"COc1cc(C(=O)/C(F)=C/c2c[nH]c3cc(Br)ccc23)cc(OC)c1OC [4c, (Z)-3–(6-bromo-1H-indol-3-yl)-2-fluoro-1–(3,4,5-trimethoxyphenyl)prop-2-en-1-one]",Effect on tubulin polymerisation in vitro,tubulin,exhibited a similar action to that of colchicine
same,wound closure rates,[1],11%
same,cleaved Caspase-3/-7/-9 expression,[2],up-regulation of cleaved Caspase-3/-7/-9
same,"HUVEC cord formation, tube area and length",HUVECs,dramatically suppressed
same,Cyclin B1 expression,[3],caused a decrease in Cyclin B1
same,P21 expression,[3],increased the expression of tumour suppressor protein P21
same,phosphorylation levels of Cdc2,[3],decrease the phosphorylation levels of Cdc2 in a concentration-dependent manner
same,IC50,[4],1050 ± 220 nM
same,IC50,[5],1210 ± 17 nM
same,IC50,[6],680 ± 220 nM
same,IC50,[7],254 ± 37 nM
same,IC50,[8],25 ± 1 nM
same,IC50,[9],202 ± 12 nM
same,IC50,[10],> 5000 nM
